Assay results from patent publication US20090148850A1, “Methods for identifying modulators of P2RY14” (priority 2007, published 2009).

How the values were obtained:
[1] = biological target: T1, mouse P2RY14 (Mus musculus, UniProt Q9ESG6); assay: CellKey System live cell functional assay, mouse P2RY14; type: cell-based; conditions: HEK cells expressing mouse P2RY14 and Gqi5
T1 construct: expressed in transfected cells
T1 sequence (Q9ESG6 1-338): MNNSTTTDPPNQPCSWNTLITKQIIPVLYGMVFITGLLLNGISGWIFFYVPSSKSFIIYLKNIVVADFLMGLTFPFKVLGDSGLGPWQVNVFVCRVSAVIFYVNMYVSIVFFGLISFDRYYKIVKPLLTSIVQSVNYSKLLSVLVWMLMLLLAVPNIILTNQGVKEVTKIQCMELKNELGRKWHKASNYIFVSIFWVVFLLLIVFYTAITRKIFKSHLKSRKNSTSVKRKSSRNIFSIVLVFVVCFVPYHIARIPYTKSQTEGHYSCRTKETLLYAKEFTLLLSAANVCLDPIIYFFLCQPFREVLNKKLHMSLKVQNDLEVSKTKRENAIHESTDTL
Procedure: (§1) The Cellkey System™ (MDS Sciex), a novel, live cell, label-free, real-time technology, was used to examine P2RY14 activation following agonist stimulation. The CellKey System™ is based on cellular dielectric spectroscopy (CDS) and monitors changes in impedance of the applied electrical current through the cell monolayer upon receptor activation.
(§2) On the following day, growth medium was removed from the cell monolayer and replaced with 135 μl of HBSS pH 7.4 containing 20 mM Hepes for a 30 minutes pre-incubation period at room temperature. Baseline measurements were made for 5 minutes at 28° C. prior to ligand addition. For agonist assays, 15 μl of 10× agonist diluted in HBSS pH 7.4 containing 20 mM HEPES was added to the cell monolayer simultaneously using the 96 multichannel head from the CellKey™ System. Cellular response was monitored for 10 minutes to assess cellular response after ligand addition.

[2] = tested on: HEK cells not expressing P2RY14; assay: FLIPR Ca2+ release in HEK cells not expressing P2RY14 (specificity); type: cell-based
[3] = biological target: T1, mouse P2RY14; assay: FLIPR whole cell Ca2+ agonist assay, HEK cells expressing mouse P2RY14 and Gqi5; type: cell-based
Excerpt: (§3) Stable HEK clonal cell lines expressing P2RY14 and the chimeric G protein Gqi5 were constructed. The chimeric Gqi5 forces the coupling of P2RY14 through the Gq (calcium) pathway and allows for monitoring of calcium signaling using a calcium binding fluorescent dye and a FLIPR (fluorometric imaging plate reader, MDS Sciex). Vector pCEP4 comprising the chimeric Gqi5 was obtained from Molecular Devices, Sunnyvale, Calif. (Cat. No. RD-PGQI5).
The nucleic acid encoding the mouse P2RY14 was under the control of the CMV promoter.
(§4) Cells were grown in DMEM medium containing 25 mM HEPES, pH 7.4 and 10% FBS, 50 units/ml penicillin/50 μg/ml streptomycin, 2 mM glutamine and 1 mM sodium pyruvate at 37° C. in humidified air containing 5% CO2. Two days post-transfection, cells were grown under selection in the DMEM medium as indicated above and supplemented with 200 μg/ml Hygromycin B and 250 μg/ml geneticin.
(§5) Cells were incubated overnight at 37° C. and 5% CO2 to form a monolayer. On the following day, 30 μl of fluorescent no-wash dye was added to the cell monolayer and the plate was incubated for 60 minutes at 37° C., 5% CO2.
(§6) For agonist assays, 6.12 μl of 10× agonist solution was added to the cell/dye incubation and Ca^2+ signaling was monitored by FLIPR. For antagonist assays, 250 nl of compound in 100% DMSO was added to cell/dye mixture; following a 20 minute incubation at room temperature, 6.12 μl of 10× agonist solution at EC80 in HBSS containing 20 mM Hepes was added to cells and Ca^2+ signaling was monitored by FLIPR. Quantitation of the % stimulation or inhibition of Ca^2+ signaling by agonist or antagonist, respectively, was calculated using the Max-Min fluorescent signal detected.

[4] = tested on: simian P2RY14; assay: Membrane filtration binding assay, simian P2RY14; design: species or system chimpanzee
Procedure: (§7) Membrane preparations were made by N2 cavitation using a Parr unit. […] Cell were Dounce homogenized (size B, 10 strokes) and then added to the cavitation unit. Pressure was adjusted to 800 psi and cells were left under pressure for 30 minutes. Broken cells were released drop by drop and spun at 1000 g for 10 minutes. Supernatent was spun at 160,000 g (rotor type 60 Ti, 40000 rpm for 30 min). Pellet was resuspended in 10 mM HEPES/KOH pH 7.4, 1 mM EDTA in ⅕ the original volume, dounce homogenized (size A, 10 strokes), aliquoted, and frozen at −80° C.
Binding assays were performed in 10 mM Hepes pH 7.4 (KOH), 5 mM MnCl2, 5 mM MgCl2 buffer. Membranes (10 μg/well for human P2RY14 and 30 μg/well for simian P2RY14) were incubated with 10 nM [5.6-^3H] Uridine 5′-triphosphate (UTP), ammonium salt from Amersham Biosciences (# TRK412) in presence of compounds diluted in DMSO (2% final in assay), in a total volume of 100 μl. 50 minutes (human P2RY14) or 60 minutes (simian) P2RY14) incubations were performed at room temperature with shaking. […] To examine the stability of [^3H]-UTP in the membrane filtration binding assay, 100 ul aliquots of the reaction mixture were extracted at 2, 10, 20, 40, 60 and 90 minutes with 100 uL of cold 80 mM EDTA solution (pH 8) and 200 uL of cold Acetonitrile. After mixing, proteins were precipitated by centrifugation at 13000 rpm for 10 minutes at 4° C. […] After 0.5 min at 10:90 50 mM KH2PO4/750 mM KH2PO4, a gradient was applied in order to increase to 100% 750 mM KH2PO4 at 5 min, after which this composition was maintained for an additional 3 min. Samples were kept at 4° C. prior to HPLC analysis

[5] = tested on: simian (chimpanzee) P2RY14; assay: CellKey System live cell functional assay, simian P2RY14; type: cell-based; conditions: HEK cells expressing simian P2RY14 and Gqi5
Procedure: as §1, §2

[6] = tested on: simian (chimpanzee) P2RY14; assay: FLIPR whole cell Ca2+ agonist assay, HEK cells expressing simian (chimpanzee) P2RY14 and Gqi5; type: cell-based
Excerpt: as §3
The simian (chimpanzee) P2RY14 nucleic acid fragment was synthesized based upon the Ensembl Gene ID ENSPTRG00000030093 by Bio S & T, Montreal, Quebec, Canada, to be flanked with KpnI and NotI restriction enzyme sites. […] The DNA fragment was digested with KpnI and NotI and then cloned into a pcDEF3 vector previously digested with KpnI and NotI to place the DNA fragment in the proper orientation downstream of the human EF-1a promoter. The nucleic acid encoding the simian P2RY14 was under the control of the human EF-1a promoter.
as §4, §5, §6

[7] = biological target: T2, rat P2YR14 receptor (Rattus norvegicus, UniProt O35881); conditions: Fricks et al. 2007; cited from earlier work
T2 sequence (O35881 1-305): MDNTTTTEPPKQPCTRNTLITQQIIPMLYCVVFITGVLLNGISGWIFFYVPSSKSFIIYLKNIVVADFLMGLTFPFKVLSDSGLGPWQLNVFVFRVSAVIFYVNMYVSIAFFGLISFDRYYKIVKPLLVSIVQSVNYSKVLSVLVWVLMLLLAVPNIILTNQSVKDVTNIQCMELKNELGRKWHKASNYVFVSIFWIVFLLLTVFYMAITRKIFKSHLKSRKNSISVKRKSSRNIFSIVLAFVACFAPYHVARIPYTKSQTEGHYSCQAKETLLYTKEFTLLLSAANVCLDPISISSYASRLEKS

[8] = HPLC analysis of [3H]-UTP stability in the P2RY14 membrane filtration binding assay; conditions: 60 minute incubation
Procedure: Binding assays were performed in 10 mM Hepes pH 7.4 (KOH), 5 mM MnCl2, 5 mM MgCl2 buffer. Membranes (10 μg/well for human P2RY14 and 30 μg/well for simian P2RY14) were incubated with 10 nM [5.6-^3H] Uridine 5′-triphosphate (UTP), ammonium salt from Amersham Biosciences (# TRK412) in presence of compounds diluted in DMSO (2% final in assay), in a total volume of 100 μl. 50 minutes (human P2RY14) or 60 minutes (simian) P2RY14) incubations were performed at room temperature with shaking. […] Incubation mixtures were filtered on GF/C Packard filter membranes (#6065174) and washed with cold 10 mM Hepes/KOH buffer at pH 7.4 (2×3.7 ml) using a Tomtek Mach III harvester. GF/C filters were subsequently dried at 55° C. in a vacuum oven for 1 hour before addition of 25 μl/well Ultima Gold F scintillation fluid from Packard (#6013179) and counted in a Wallac Microbeta counter normalized for ^3H (2 min/well). Counts (ccpms) generated by non specific binding were subtracted from total counts, to give specific binding which was expressed as % of total binding and K is were calculated by data analyzer using the inflection point of the dose dependant sigmoidal curve generated for each compound. Kds for [^3H]-UTP/[^3H]-UDP in the human and simian assays were determined by Scatchard analysis and are as follow: 10.03 nM for human P2RY14 and 10.25 nM for simian P2RY14. […]

[9] = biological target: T3, P2RY14 (Homo sapiens, UniProt Q15391); assay: Membrane filtration binding assay, human P2RY14; design: expressed in transfected cells; conditions: human P2RY14 (data not shown)
T3 sequence (Q15391 1-338): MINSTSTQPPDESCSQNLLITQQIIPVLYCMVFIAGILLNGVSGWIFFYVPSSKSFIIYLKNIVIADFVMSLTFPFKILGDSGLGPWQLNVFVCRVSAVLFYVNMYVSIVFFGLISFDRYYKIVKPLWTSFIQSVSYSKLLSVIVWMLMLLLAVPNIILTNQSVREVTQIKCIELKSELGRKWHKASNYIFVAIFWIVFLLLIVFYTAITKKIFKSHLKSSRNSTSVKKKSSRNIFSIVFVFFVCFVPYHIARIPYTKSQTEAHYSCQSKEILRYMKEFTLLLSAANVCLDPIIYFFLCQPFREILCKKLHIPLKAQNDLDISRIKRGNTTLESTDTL
Procedure: as §7
Binding assays were performed in 10 mM Hepes pH 7.4 (KOH), 5 mM MnCl2, 5 mM MgCl2 buffer. Membranes (10 μg/well for human P2RY14 and 30 μg/well for simian P2RY14) were incubated with 10 nM [5.6-^3H] Uridine 5′-triphosphate (UTP), ammonium salt from Amersham Biosciences (# TRK412) in presence of compounds diluted in DMSO (2% final in assay), in a total volume of 100 μl. 50 minutes (human P2RY14) or 60 minutes (simian) P2RY14) incubations were performed at room temperature with shaking. […] To examine the stability of [^3H]-UTP in the membrane filtration binding assay, 100 ul aliquots of the reaction mixture were extracted at 2, 10, 20, 40, 60 and 90 minutes with 100 uL of cold 80 mM EDTA solution (pH 8) and 200 uL of cold Acetonitrile. After mixing, proteins were precipitated by centrifugation at 13000 rpm for 10 minutes at 4° C. […]

Structure (SMILES)	P2RY14 signaling (impedance, CellKey) [1]	Ca2+ release in cells not expressing P2RY14 [2]	activation of P2RY14 (Ca2+ signaling) [3]	competition for [3H]-UTP/[3H]-UDP binding ([4]; simian P2RY14 membranes)	P2RY14 signaling (impedance, CellKey) [5]	activation of P2RY14 (Ca2+ signaling) [6]	mode of action at receptor [7]	stability of radioligand in membrane filtration binding assay [8]	time of conversion to [3H]-UDP [8]	specific binding window as radioligand [9]	specific binding window as radioligand ([4]; HEK cells expressing simian P2RY14, membrane filtration)
O=c1ccn([C@@H]2O[C@H](COP(=O)(O)OP(=O)(O)O)[C@@H](O)[C@H]2O)c(=O)[nH]1 [UDP]	mediated signaling	do not stimulate Ca^2+ release	activated	able to successfully compete	mediated signaling	activated	full agonist	–	–	–	–
N.N.N.N.[3H]c1c([3H])n([C@@H]2O[C@H](COP(=O)(O)OP(=O)(O)OP(=O)(O)O)[C@@H](O)[C@H]2O)c(=O)[nH]c1=O [[^3H]-UTP, [5.6-^3H] Uridine 5′-triphosphate (UTP), ammonium salt]	–	–	–	–	–	–	–	converted predominantly to [^3H]-UDP	≤ 10 min	a specific binding window	a specific binding window
